Patent publication US9492471B2, “Methods of treating a disease or disorder associated with Bruton'S Tyrosine Kinase” (Celgene Avilomics Research, Inc., priority 2013, dated 2016)
Where two headings read alike, the source gives them in different places.

Assays:
Assay in all cases: HotSpot kinase profiling
Type in all cases: biochemical
ABL1 = target: T1, ABL1 (Homo sapiens, UniProt P00519)
T1 construct: purchased Reaction Biology Corp
Outline: (§1)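 Radiometric kinase assay with P81 filter capture; each kinase was added to fresh substrate plus cofactors in reaction buffer and incubated 2 h at room temperature. Unreacted phosphate was washed off with 0.1% phosphoric acid before detection; percent inhibition is relative to DMSO control, averaged over replicates.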

ALK1/ACVRL1 = target: T2, ALK1/ACVRL1 (Homo sapiens, UniProt P37023)
T2 construct: purchased Reaction Biology Corp
Outline: as §1

BLK = target: T3, BLK (Homo sapiens, UniProt P51451)
T3 construct: purchased Reaction Biology Corp
Outline: as §1

CK1d = target: T4, CK1d (Homo sapiens, UniProt P48730)
T4 construct: purchased Reaction Biology Corp
T4 sequence (P48730 whole entry): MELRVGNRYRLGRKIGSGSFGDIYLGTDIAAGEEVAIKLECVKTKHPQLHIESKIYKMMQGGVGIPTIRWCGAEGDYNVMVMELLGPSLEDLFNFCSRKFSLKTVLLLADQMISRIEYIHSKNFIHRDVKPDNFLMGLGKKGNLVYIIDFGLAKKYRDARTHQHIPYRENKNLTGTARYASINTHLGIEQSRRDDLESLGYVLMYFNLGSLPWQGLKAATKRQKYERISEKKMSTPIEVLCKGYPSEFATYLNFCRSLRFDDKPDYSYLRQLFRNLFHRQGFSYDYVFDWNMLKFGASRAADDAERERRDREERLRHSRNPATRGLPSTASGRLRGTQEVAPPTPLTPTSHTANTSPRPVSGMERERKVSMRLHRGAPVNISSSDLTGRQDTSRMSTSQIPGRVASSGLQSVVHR
Outline: as §1

CSK = target: T5, CSK (Homo sapiens, UniProt P41240)
T5 construct: purchased Reaction Biology Corp
Outline: as §1

FAK/PTK2 = target: T6, FAK/PTK2 (Homo sapiens, UniProt Q05397)
T6 construct: purchased Reaction Biology Corp
T6 sequence (Q05397 whole entry): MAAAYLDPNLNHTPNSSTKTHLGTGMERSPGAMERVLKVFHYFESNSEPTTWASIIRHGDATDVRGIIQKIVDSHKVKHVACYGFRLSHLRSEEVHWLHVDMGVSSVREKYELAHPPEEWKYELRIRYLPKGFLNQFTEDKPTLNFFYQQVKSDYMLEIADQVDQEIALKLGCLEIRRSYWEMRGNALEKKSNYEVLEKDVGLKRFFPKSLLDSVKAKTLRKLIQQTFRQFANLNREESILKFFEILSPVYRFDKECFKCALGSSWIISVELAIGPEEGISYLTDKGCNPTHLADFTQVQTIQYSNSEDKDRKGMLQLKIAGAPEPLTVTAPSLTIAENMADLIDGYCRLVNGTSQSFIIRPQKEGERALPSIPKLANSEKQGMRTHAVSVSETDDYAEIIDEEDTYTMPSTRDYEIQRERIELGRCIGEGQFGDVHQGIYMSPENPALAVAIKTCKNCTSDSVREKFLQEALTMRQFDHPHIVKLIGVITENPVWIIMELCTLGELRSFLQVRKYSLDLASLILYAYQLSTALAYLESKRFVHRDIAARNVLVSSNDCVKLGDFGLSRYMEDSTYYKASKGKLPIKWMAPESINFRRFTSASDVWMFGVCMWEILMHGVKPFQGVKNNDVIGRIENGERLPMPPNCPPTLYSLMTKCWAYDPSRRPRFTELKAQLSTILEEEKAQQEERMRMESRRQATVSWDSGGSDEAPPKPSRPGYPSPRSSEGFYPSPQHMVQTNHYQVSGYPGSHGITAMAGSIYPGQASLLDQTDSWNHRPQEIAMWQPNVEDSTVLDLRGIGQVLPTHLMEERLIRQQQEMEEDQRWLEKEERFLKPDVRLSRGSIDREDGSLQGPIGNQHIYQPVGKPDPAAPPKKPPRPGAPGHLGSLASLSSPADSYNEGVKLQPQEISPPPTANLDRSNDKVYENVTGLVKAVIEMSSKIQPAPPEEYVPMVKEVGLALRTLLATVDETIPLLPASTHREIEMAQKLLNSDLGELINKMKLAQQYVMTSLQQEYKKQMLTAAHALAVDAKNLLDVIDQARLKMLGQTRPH
Outline: as §1

IR = target: T7, IR (Homo sapiens, UniProt P06213)
T7 construct: purchased Reaction Biology Corp
T7 sequence (P06213 28-1382): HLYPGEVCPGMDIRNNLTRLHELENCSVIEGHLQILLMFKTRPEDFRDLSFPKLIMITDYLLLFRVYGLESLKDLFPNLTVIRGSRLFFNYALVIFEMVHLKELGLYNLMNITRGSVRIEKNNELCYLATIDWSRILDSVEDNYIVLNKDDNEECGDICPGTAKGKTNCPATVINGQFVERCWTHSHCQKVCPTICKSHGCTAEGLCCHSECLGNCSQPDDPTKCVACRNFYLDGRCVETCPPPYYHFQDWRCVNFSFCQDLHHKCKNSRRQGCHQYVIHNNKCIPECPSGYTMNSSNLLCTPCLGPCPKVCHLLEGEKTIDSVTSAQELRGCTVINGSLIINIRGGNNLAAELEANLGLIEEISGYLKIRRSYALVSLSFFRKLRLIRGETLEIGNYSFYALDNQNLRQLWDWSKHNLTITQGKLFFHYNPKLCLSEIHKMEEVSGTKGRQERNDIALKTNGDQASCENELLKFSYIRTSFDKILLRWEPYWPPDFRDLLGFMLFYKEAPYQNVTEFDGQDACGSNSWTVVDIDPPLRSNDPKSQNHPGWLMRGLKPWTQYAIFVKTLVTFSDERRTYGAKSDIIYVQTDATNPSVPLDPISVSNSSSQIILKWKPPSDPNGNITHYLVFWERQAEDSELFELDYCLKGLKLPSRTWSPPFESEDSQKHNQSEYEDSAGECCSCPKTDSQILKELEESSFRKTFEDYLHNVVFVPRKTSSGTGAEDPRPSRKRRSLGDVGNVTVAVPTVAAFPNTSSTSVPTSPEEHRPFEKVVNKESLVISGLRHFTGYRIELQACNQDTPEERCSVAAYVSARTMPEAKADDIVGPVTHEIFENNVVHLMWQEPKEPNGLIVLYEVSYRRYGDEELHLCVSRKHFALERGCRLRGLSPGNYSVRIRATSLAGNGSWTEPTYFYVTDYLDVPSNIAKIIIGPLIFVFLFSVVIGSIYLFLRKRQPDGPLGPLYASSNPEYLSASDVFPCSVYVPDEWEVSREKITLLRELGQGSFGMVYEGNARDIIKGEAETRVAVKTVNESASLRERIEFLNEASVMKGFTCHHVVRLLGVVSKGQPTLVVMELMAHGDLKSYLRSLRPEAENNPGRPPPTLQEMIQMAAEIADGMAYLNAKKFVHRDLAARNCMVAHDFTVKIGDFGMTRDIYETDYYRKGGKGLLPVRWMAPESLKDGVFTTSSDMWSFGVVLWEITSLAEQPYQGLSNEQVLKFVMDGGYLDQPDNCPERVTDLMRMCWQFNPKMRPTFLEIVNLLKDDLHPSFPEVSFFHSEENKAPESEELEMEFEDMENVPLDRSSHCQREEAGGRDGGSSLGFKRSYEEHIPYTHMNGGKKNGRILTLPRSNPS
Outline: as §1

JNK2 = target: T8, JNK2 (Homo sapiens, UniProt P45984)
T8 construct: purchased Reaction Biology Corp
Outline: as §1

MKK4 = target: T9, MKK4 (Homo sapiens, UniProt P45985)
T9 construct: purchased Reaction Biology Corp
T9 sequence (P45985 1-399): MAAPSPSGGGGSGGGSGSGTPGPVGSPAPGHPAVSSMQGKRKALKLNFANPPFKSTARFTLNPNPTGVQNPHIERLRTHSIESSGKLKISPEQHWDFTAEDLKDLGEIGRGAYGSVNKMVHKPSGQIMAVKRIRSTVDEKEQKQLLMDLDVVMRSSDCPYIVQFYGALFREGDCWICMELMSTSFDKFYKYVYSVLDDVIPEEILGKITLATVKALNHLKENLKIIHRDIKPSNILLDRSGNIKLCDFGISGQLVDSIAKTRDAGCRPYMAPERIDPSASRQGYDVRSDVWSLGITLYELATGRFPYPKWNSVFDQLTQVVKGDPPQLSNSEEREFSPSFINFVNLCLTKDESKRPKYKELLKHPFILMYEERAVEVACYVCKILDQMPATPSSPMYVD
Outline: as §1

MST3/STK24 = target: T10, MST3/STK24 (Homo sapiens, UniProt Q9Y6E0)
T10 construct: purchased Reaction Biology Corp
Outline: as §1

NEK11 = target: T11, NEK11 (Homo sapiens, UniProt Q8NG66)
T11 construct: purchased Reaction Biology Corp
T11 sequence (Q8NG66 1-645): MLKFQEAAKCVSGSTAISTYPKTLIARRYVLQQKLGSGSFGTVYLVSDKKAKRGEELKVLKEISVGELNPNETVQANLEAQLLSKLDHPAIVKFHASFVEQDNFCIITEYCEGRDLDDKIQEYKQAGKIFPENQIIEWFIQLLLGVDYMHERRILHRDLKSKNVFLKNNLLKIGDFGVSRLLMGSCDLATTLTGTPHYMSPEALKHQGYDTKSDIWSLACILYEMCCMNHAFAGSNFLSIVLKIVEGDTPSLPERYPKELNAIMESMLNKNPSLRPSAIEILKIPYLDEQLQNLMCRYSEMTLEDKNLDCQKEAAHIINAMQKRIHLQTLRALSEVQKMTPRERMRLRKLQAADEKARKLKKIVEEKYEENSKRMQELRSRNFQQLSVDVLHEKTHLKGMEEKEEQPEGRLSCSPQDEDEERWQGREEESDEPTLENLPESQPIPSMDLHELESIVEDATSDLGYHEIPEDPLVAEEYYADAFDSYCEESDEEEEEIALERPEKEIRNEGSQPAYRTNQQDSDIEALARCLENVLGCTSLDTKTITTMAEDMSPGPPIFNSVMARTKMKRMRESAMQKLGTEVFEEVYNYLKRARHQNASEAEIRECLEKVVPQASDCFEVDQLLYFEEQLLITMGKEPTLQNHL
Outline: as §1

PKN1/PRK1 = target: T12, PKN1/PRK1 (Homo sapiens, UniProt Q16512)
T12 construct: purchased Reaction Biology Corp
T12 sequence (Q16512 whole entry): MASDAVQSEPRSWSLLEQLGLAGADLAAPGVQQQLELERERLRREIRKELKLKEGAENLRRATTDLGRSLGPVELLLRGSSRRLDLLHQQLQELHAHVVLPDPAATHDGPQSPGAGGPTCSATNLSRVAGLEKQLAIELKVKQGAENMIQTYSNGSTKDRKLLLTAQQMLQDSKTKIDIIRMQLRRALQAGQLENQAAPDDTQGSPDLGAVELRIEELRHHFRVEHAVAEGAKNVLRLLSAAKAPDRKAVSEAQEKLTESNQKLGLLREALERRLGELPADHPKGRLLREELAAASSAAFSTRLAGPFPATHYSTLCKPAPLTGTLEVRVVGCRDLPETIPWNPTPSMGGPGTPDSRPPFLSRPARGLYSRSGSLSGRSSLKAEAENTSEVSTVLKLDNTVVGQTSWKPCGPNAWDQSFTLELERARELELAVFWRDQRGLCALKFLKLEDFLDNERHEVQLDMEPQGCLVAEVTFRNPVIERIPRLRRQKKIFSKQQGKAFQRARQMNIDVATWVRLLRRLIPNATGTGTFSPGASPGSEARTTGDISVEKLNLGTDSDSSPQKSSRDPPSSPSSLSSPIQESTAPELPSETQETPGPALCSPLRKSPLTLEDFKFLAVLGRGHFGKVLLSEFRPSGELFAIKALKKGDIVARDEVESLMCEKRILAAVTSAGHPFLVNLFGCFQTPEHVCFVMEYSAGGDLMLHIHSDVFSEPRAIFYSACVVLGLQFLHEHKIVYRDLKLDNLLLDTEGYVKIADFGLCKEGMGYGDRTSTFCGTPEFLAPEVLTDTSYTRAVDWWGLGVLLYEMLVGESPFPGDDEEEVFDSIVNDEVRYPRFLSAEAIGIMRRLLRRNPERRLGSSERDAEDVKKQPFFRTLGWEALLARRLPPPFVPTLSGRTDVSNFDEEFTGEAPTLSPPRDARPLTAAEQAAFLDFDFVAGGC
Outline: as §1

ROCK2 = target: T13, ROCK2 (Homo sapiens, UniProt O75116)
T13 construct: purchased Reaction Biology Corp
Outline: as §1

STK38L/NDR2 = target: T14, STK38L/NDR2 (Homo sapiens, UniProt Q9Y2H1)
T14 construct: purchased Reaction Biology Corp
Outline: as §1

[1] = read-out: % Enzyme Activity (relative to DMSO controls) Run 1
[2] = read-out: % Enzyme Activity (relative to DMSO controls) Run 2

T1 sequence (P00519 whole entry): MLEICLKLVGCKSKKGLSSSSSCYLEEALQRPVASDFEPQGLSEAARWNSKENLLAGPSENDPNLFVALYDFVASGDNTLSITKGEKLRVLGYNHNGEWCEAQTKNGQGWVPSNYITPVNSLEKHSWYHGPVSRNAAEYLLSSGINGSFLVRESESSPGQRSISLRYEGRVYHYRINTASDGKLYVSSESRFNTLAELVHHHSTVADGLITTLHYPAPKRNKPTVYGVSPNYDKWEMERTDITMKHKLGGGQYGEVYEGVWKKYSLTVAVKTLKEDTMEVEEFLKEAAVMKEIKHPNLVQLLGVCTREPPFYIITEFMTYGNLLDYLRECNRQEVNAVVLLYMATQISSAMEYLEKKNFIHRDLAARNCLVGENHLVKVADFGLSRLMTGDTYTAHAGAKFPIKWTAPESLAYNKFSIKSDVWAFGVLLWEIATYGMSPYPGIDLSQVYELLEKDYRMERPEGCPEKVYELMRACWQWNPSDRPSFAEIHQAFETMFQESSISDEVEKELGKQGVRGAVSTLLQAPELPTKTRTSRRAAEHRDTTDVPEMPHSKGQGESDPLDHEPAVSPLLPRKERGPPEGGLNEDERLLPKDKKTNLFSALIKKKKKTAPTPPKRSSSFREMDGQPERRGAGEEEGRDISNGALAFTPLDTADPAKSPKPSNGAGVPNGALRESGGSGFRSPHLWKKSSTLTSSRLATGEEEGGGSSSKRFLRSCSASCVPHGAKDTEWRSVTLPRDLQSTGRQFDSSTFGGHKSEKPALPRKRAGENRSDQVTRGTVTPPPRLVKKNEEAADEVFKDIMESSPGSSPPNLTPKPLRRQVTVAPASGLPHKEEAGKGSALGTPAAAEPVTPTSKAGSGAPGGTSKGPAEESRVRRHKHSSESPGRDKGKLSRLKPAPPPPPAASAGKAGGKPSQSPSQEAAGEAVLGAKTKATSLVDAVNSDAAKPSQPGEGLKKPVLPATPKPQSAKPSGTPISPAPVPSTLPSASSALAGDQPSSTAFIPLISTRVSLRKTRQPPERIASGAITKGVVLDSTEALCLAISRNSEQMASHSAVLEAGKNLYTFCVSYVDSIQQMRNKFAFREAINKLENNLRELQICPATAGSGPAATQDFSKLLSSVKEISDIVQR

## C=CC(=O)Nc1cccc(Nc2nc(Nc3ccc(OCCOC)c(F)c3)ncc2F)c1 [Compound 2]
ABL1
  inhibition at 3 µM: 54.7%
ABL1; [1]
  remaining activity at 3 µM: 45.4%
ABL1; [2]
  remaining activity at 3 µM: 45.2%
ALK1/ACVRL1
  inhibition at 3 µM: -24.4%
ALK1/ACVRL1; [1]
  remaining activity at 3 µM: 125%
ALK1/ACVRL1; [2]
  remaining activity at 3 µM: 124%
BLK
  inhibition at 3 µM: 93.7%
BLK; [1]
  remaining activity at 3 µM: 6.3%
BLK; [2]
  remaining activity at 3 µM: 6.37%
CK1d
  inhibition at 3 µM: -0.03%
CK1d; [1]
  remaining activity at 3 µM: 99.9%
CK1d; [2]
  remaining activity at 3 µM: 100%
CSK
  inhibition at 3 µM: 18.2%
CSK; [1]
  remaining activity at 3 µM: 81.7%
CSK; [2]
  remaining activity at 3 µM: 81.8%
FAK/PTK2
  inhibition at 3 µM: 37.1%
FAK/PTK2; [1]
  remaining activity at 3 µM: 62.8%
FAK/PTK2; [2]
  remaining activity at 3 µM: 62.9%
IR
  inhibition at 3 µM: 15.4%
IR; [1]
  remaining activity at 3 µM: 84.5%
IR; [2]
  remaining activity at 3 µM: 84.7%
JNK2
  inhibition at 3 µM: 6.22%
JNK2; [1]
  remaining activity at 3 µM: 92.5%
JNK2; [2]
  remaining activity at 3 µM: 95.1%
MKK4
  inhibition at 3 µM: -16.6%
MKK4; [1]
  remaining activity at 3 µM: 117%
MKK4; [2]
  remaining activity at 3 µM: 116%
MST3/STK24
  inhibition at 3 µM: 14.5%
MST3/STK24; [1]
  remaining activity at 3 µM: 86.6%
MST3/STK24; [2]
  remaining activity at 3 µM: 84.5%
NEK11
  inhibition at 3 µM: 7.32%
NEK11; [1]
  remaining activity at 3 µM: 92.5%
NEK11; [2]
  remaining activity at 3 µM: 92.8%
PKN1/PRK1
  inhibition at 3 µM: 6.94%
PKN1/PRK1; [1]
  remaining activity at 3 µM: 93.8%
PKN1/PRK1; [2]
  remaining activity at 3 µM: 92.3%
ROCK2
  inhibition at 3 µM: -1.88%
ROCK2; [1]
  remaining activity at 3 µM: 102%
ROCK2; [2]
  remaining activity at 3 µM: 101%
STK38L/NDR2
  inhibition at 3 µM: -1.33%
STK38L/NDR2; [1]
  remaining activity at 3 µM: 107%
STK38L/NDR2; [2]
  remaining activity at 3 µM: 96%
